Experimental data: the supplement of paper PMC10307832

Each cell line was assayed with CC[C@@H]1C(=O)N(C)c2cnc(Nc3ccc(C(=O)NC4CCN(C)CC4)cc3OC)nc2N1C1CCCC1 [BI-2536] + C[C@@H](Oc1cc(-c2cnn(C3CCNCC3)c2)cnc1N)c1c(Cl)ccc(F)c1Cl [Crizotinib] (partner 1 µM) (assay: relative viability (nuclei count vs DMSO), 5 days (fraction); higher = more cells survive). Details: first compound 1 µM.
How it was run: (§1)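 After 5 days of treatment, lung cancer cells in 1536-well plates were fixed and stained in a single step (final 0.05% Triton X-100, 1% formaldehyde, 1 ug/ml Hoechst) and their nuclei counted on 4× images. Treatment had been applied by pin tool the day after seeding as one drug alone or as a fixed anchor-drug dose with five library-drug doses (not always all listed) in √10 steps. Relative viability is the nuclei count of treated wells divided by that of vehicle wells, and values are medians of duplicate plates.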

Cell Line	relative viability
NCI-H1355	0.184

Each cell line was assayed with CC1CC(=O)N(C2=CN=C(N=C2N1C3CCCC3)NC4=C(C=C(C=C4)C(=O)NC5CCN(CC5)C)OC)C [NPK76-II-72-1] + CC(C)C[C@H](NC(=O)[C@H](Cc1ccccc1)NC(=O)c1cnccn1)B(O)O [Bortezomib] (partner 0.002 µM) in the same assay as above. Details: first compound 0.01 µM.
How it was run: as §1

Cell Line	relative viability
NCI-H2405	1.01
HOP-62	0.743
HCC-44	0.836
LU99A	1.17
BEN	0.773
HARA	1.08
HCC-78	0.532
NCI-H322M	1.17
LCLC-97TM1	0.638
NCI-H2009	1.01
A-427	0.935
NCI-H441	0.872
NCI-H661	0.912
NCI-H1734	0.879
NCI-H460	1.02
NCI-H2347	0.827
SK-LU-1	0.931
201T	1.07
NCI-H1915	0.981
HCC-827	0.975
LXF-289	1.02
NCI-H23	0.856
NCI-H647	0.847
NCI-H1651	0.95
EPLC-272H	0.984
NCI-H1792	1.06
NCI-H1355	1.06

Same assay, conditions: first compound 0.03162 µM

Cell Line	relative viability
NCI-H2405	0.99
HOP-62	0.754
HCC-44	0.877
LU99A	1.28
BEN	0.659
HARA	1.2
HCC-78	0.565
NCI-H322M	1.3
LCLC-97TM1	0.727
NCI-H2009	1.1
A-427	0.977
NCI-H441	0.312
NCI-H661	0.793
NCI-H1734	0.96
NCI-H460	1.26
NCI-H2347	1.24
SK-LU-1	1.15
201T	1.14
NCI-H1915	1.04
HCC-827	1.11
LXF-289	1.06
NCI-H23	1.22
NCI-H647	1.1
NCI-H1651	0.954
EPLC-272H	0.916
NCI-H1792	0.961
NCI-H1355	1.12

Same assay, conditions: first compound 0.1 µM

Cell Line	relative viability
NCI-H2405	0.921
HOP-62	0.433
HCC-44	0.87
LU99A	1.23
BEN	0.763
HARA	1.04
HCC-78	0.398
NCI-H322M	1.24
LCLC-97TM1	0.561
NCI-H2009	1.09
A-427	1.06
NCI-H441	0.319
NCI-H661	0.688
NCI-H1734	0.969
NCI-H460	1.11
NCI-H2347	0.697
SK-LU-1	0.829
201T	1.08
NCI-H1915	0.848
HCC-827	1.05
LXF-289	0.955
NCI-H1651	0.903
EPLC-272H	0.773
NCI-H1792	0.829
NCI-H1355	1.03

Same assay, conditions: first compound 0.3162 µM

Cell Line	relative viability
NCI-H2405	0.753
HOP-62	0.916
HCC-44	0.843
LU99A	0.952
BEN	0.466
HARA	1.12
HCC-78	0.52
NCI-H322M	1.39
LCLC-97TM1	0.606
NCI-H2009	0.842
A-427	0.932
NCI-H441	0.527
NCI-H661	0.647
NCI-H1734	0.779
NCI-H460	1.01
NCI-H2347	0.756
SK-LU-1	1.23
201T	1.17
NCI-H1915	0.865
HCC-827	0.956
LXF-289	1.04
NCI-H23	1.06
NCI-H647	0.853
NCI-H1651	0.9
EPLC-272H	0.829
NCI-H1792	0.879
NCI-H1355	1.13

Same assay, conditions: first compound 1 µM

Cell Line	relative viability
NCI-H2405	1.11
HOP-62	0.824
HCC-44	1.03
LU99A	1.3
BEN	0.875
HARA	1.22
HCC-78	0.998
NCI-H322M	1.36
LCLC-97TM1	0.703
NCI-H2009	1.24
A-427	1.02
NCI-H441	0.451
NCI-H661	0.854
NCI-H1734	1.13
NCI-H460	1.18
NCI-H2347	1.01
SK-LU-1	1.42
201T	1.1
NCI-H1915	1.02
HCC-827	1.29
LXF-289	1.02
NCI-H23	1.12
NCI-H647	1.05
NCI-H1651	0.991
EPLC-272H	0.975
NCI-H1792	1.07
NCI-H1355	1.19

Each cell line was assayed with CC1CC(=O)N(C2=CN=C(N=C2N1C3CCCC3)NC4=C(C=C(C=C4)C(=O)NC5CCN(CC5)C)OC)C [NPK76-II-72-1] + CC(=O)Nc1cccc(-n2c(=O)n(C3CC3)c(=O)c3c(Nc4ccc(I)cc4F)n(C)c(=O)c(C)c32)c1 [Trametinib] (partner 0.02 µM) in the same assay as above. Details: first compound 0.01 µM.
How it was run: as §1

Cell Line	relative viability
NCI-H2405	0.662
HOP-62	0.384
HCC-44	1.06
LU99A	0.591
BEN	1.15
HARA	0.83
HCC-78	0.711
NCI-H322M	0.531
LCLC-97TM1	0.203
NCI-H2009	0.292
A-427	0.732
NCI-H441	0.396
NCI-H661	0.622
NCI-H1734	0.621
NCI-H460	0.271
NCI-H2347	0.353
SK-LU-1	0.454
201T	0.716
NCI-H1915	0.286
HCC-827	0.557
LXF-289	0.71
NCI-H23	0.361
NCI-H647	0.443
NCI-H1651	0.83
EPLC-272H	0.257
NCI-H1355	0.468

Same assay, conditions: first compound 0.03162 µM

Cell Line	relative viability
NCI-H2405	0.618
HOP-62	0.415
HCC-44	1.27
LU99A	0.542
BEN	0.945
HARA	0.864
HCC-78	0.704
NCI-H322M	0.492
LCLC-97TM1	0.208
NCI-H2009	0.245
A-427	0.743
NCI-H441	0.507
NCI-H661	0.685
NCI-H1734	0.645
NCI-H460	0.14
NCI-H2347	0.283
SK-LU-1	0.508
201T	0.701
NCI-H1915	0.307
HCC-827	0.491
LXF-289	0.691
NCI-H23	0.424
NCI-H647	0.436
NCI-H1651	0.82
EPLC-272H	0.246
NCI-H1792	0.469
NCI-H1355	0.452

Same assay, conditions: first compound 0.1 µM

Cell Line	relative viability
NCI-H2405	0.601
HOP-62	0.337
HCC-44	0.95
LU99A	0.596
BEN	1.13
HARA	0.619
HCC-78	0.575
NCI-H322M	0.472
LCLC-97TM1	0.181
NCI-H2009	0.286
A-427	0.812
NCI-H441	0.429
NCI-H661	0.589
NCI-H1734	0.587
NCI-H460	0.141
NCI-H2347	0.296
SK-LU-1	0.526
201T	0.709
NCI-H1915	0.294
HCC-827	0.556
LXF-289	0.644
NCI-H23	0.271
NCI-H647	0.418
NCI-H1651	0.839
EPLC-272H	0.252
NCI-H1792	0.478
NCI-H1355	0.421

Same assay, conditions: first compound 0.3162 µM

Cell Line	relative viability
NCI-H2405	0.59
HOP-62	0.428
HCC-44	0.992
LU99A	0.536
BEN	0.854
HCC-78	0.828
NCI-H322M	0.483
LCLC-97TM1	0.215
NCI-H2009	0.335
A-427	0.691
NCI-H441	0.497
NCI-H661	0.526
NCI-H1734	0.638
NCI-H460	0.123
NCI-H2347	0.302
SK-LU-1	0.437
201T	0.689
NCI-H1915	0.313
HCC-827	0.633
LXF-289	0.703
NCI-H23	0.342
NCI-H647	0.527
NCI-H1651	0.794
EPLC-272H	0.296
NCI-H1792	0.378
NCI-H1355	0.395

Same assay, conditions: first compound 1 µM

Cell Line	relative viability
NCI-H2405	0.702
HOP-62	0.37
HCC-44	0.988
LU99A	0.602
BEN	1.08
HARA	0.856
HCC-78	0.742
NCI-H322M	0.557
LCLC-97TM1	0.209
NCI-H2009	0.265
A-427	0.812
NCI-H441	0.54
NCI-H661	0.611
NCI-H1734	0.643
NCI-H460	0.174
NCI-H2347	0.26
SK-LU-1	0.473
201T	0.716
NCI-H1915	0.295
HCC-827	0.565
LXF-289	0.68
NCI-H23	0.38
NCI-H647	0.54
NCI-H1651	0.816
EPLC-272H	0.284
NCI-H1792	0.506
NCI-H1355	0.44
